In ChEMBL document CHEMBL5034031, “Discovery of Next-Generation Tropomyosin Receptor Kinase Inhibitors for Combating Multiple Resistance Associated with Protein Mutation” (J Med Chem, 2021):
Each block holds one molecule with its values, some of them ahead of it.

How the values were obtained:
[1] = Metabolic stability in human liver microsomes assessed as half life at 1 uM measured upto 90 mins in presence of NADPH regenerating system by LC-MS/MS analysis; type: ADME, Microsome
BaF3 [2] = test: Antiproliferative activity against mouse BaF3 cells transfected with ETV6-wild type TRKA assessed as cell viability incubated for 72 hrs by CCK8 assay; type: functional, cell-based; details: BaF3, 72 h
BaF3 [3] = test: Antiproliferative activity against mouse BaF3 cells transfected with ETV6-wild type TRKB assessed as cell viability incubated for 72 hrs by CCK8 assay; type: functional, cell-based; details: BaF3, 72 h
BaF3 [4] = test: Antiproliferative activity against mouse BaF3 cells transfected with ETV6-wild type TRKC assessed as cell viability incubated for 72 hrs by CCK8 assay; type: functional, cell-based; details: BaF3, 72 h
BaF3 [5] = type: functional, cell-based; details: Mus musculus, BaF3, 72 h
BaF3 [6] = test: animal or person; type: functional; details: Mus musculus, BaF3, po; read-out: TGI
BaF3 [7] = test: animal or person; type: functional; details: Mus musculus, BaF3, po; read-out: TGI; remark: listed apart in the source

Structure (SMILES): C[C@@H](Nc1ccn2ncc(-c3cnn(C)c3)c2n1)c1cc(F)ccc1OCC(F)F
half-life at 1 µM [1]: 32.4 min

Structure (SMILES): C[C@@H]1CCc2ncc(F)cc2[C@H]2CCCN2c2ccn3ncc(c3n2)C(=O)N1 [SELITRECTINIB]
IC50 (BaF3 [2]): 1.1 nM | IC50 (BaF3 [3]): 1.4 nM | IC50 (BaF3 [4]): 1.6 nM | IC50 (BaF3 [5]): 72.6 nM | inhibition in vivo at 100 mg/kg (BaF3 [6]): 64%

Structure (SMILES): Cn1cc(-c2cnn3ccc(N4CCC[C@@H]4c4cc(F)ccc4OCC(F)F)nc23)cn1
half-life at 1 µM [1]: 8.3 min

Further lines, with some results ahead:

half-life at 1 µM [1]: 3 min
Structure (SMILES): Cn1cc(-c2cnn3ccc(N4CCC[C@@H]4c4cc(F)ccc4F)nc23)cn1

half-life at 1 µM [1]: 365 min
Structure (SMILES): O=C(Nc1cnn2ccc(N3CCC[C@@H]3c3cc(F)ccc3F)nc12)N1CC[C@H](O)C1 [LAROTRECTINIB]
inhibition in vivo at 15 mg/kg (BaF3 [7]): 70%
